“And” between values parts separate entries of the source, which are not always exact repeats. Equal entries are not always repeated. “Also recorded” adds a separate entry of the source. Blank lines part the entries; values can stand above or below the compound they belong to. Residues, ends and D or L forms follow the SMILES beside them.
Tests used:
[1] = SAXS/WAXS of fibrils, elliptical cylinder model fit; format: physicochemical; details: for Repeated dimension of broad SAXS peak at q = 0.172 Å^–1: 7 days at 21 °C; for Repeated dimension of broad SAXS peak at q = 0.172 Å^–1 / Fibril axis ratio / Fibril cross-sectional area / Fibril minor radius (minor semiaxis): pH 8.0; for Fibril axis ratio / Fibril cross-sectional area / Fibril minor radius (minor semiaxis): SAXS, elliptical cylinder model fit, day 7 at 21 °C; for Repeat distance of sharp SAXS peak at q = 0.305 Å^–1: after 7 days of incubation at 21 °C
Method: Small- and wide-angle X-ray scattering (SAXS/WAXS) measurements were performed on a SAXSLabs Ganesha pinhole instrument (JJ X-ray System Aps) with an X-ray microsource (Xenocs) and a two-dimensional 300k Pilatus detector (Dectris Ltd., Switzerland). The wavelength, λ, used for all scattering experiments was 1.54 Å, and samples were measured at three sample-to-detector distances. All samples (200 μL) were loaded into a 1.5 mm diameter quartz capillary (Hilgenberg GmbH, Malsfeld, Germany), and the time-averaged scattering intensities were analyzed using a python code. The scattering intensity was corrected to an absolute scale by calibration against water. Supramolecular dimensions were extracted from SAXS data by using the SasView software and fitting the scattering curves to an elliptical-cylinder model (www.sasview.org).

[2] = Oscillatory and flow rheology of hydrogels; format: physicochemical; details: for Change of storage modulus G′ over one week: 2.0 mM, pH 8.0, 24 h against 1 week at 21 °C; for Recovery of initial G′ within 2 min after strain-induced loss of gel character / Time to complete recovery of the initial G′: after flow curve deformation; for Recovery of initial G′ within 2 min after strain-induced loss of gel character / Time to complete recovery of the initial G′ / Strain above which gel character is lost (G″ > G′) / Strain up to which the gel is linearly viscoelastic / Angular frequency up to which G′ and G″ are frequency-independent: hydrogel after 1 week, 25 °C; for Strain above which gel character is lost (G″ > G′) / Strain up to which the gel is linearly viscoelastic: amplitude sweep 0.01–100% strain; for Slope of viscosity against shear rate (shear thinning): flow curve, hydrogel after 1 week at ambient temperature, measured at 25 °C; for Angular frequency up to which G′ and G″ are frequency-independent: frequency sweep 0.1–100 rad/s
Method: Rheology measurements were performed on an Anton Paar Physica MCR 301 instrument using a CP25-1 (diameter of 25 mm, angle of 1°) cone plate. A water trap was installed to prevent sample evaporation, and then, sample, 150–200 μL, was carefully plated on to the rheometer stage with a tipless 1 mL syringe to minimize gel deformation. Measurements were conducted with a […] gap size at a temperature of 25 °C. All rheological measurements were done at a frequency, ω, of 10 rad/s with data collection every 2 s. Samples were left for 1 h at a steady strain sweep, γ, of 0.5% (within the linear viscoelastic regime for all sequences) for the gel samples to recover a steady state fibril network, as observed by a stabilization in the value of G′. Subsequently, frequency sweep (0.1–100 rad/s), strain sweep (γ = 0.01–100%), and flow curve (0.1–50 s^–1) experiments were conducted. A time experiment in the linear viscoelastic regime (10 rad/s, 0.5%) for a 50 min period after the flow curve was used to estimate the recovery time of the hydrogels.

[3] = FTIR amide I: β-sheet self-assembly; format: physicochemical; details: D2O, ambient temperature; for Persistence of the β-sheet structure over time by FTIR: 0 h to 1 week or longer, pH as in the words
Method: (§1) All samples were prepared in nonstick Eppendorf tubes (Axygen, Inc.). Prior to the final sample preparation (for all FTIR samples and when otherwise stated), the TFA counteranions present in the peptide sample after HPLC purification were exchanged for chloride using the following protocol: lyophilized peptide was dissolved in deionized D2O (1.0 mL). HCl was added at a molar ratio of 13.7:1 HCl:peptide. For the Phe^CN mutants, the sample was divided into two groups and lyophilized. One sample was then redissolved in H2O (to avoid obscuring the O–D stretches in the nitrile region) and the other in D2O (to avoid overlapping of the O-H bending vibrations in the amide I region) to a final concentration of 2.0 mM, unless otherwise specified. All other peptide samples were redissolved in D2O. The exchange of TFA^– to chloride may be verified by a lack of signal at 1672 cm^–1, seen in the IR spectrum for the deuterium-exchanged TFA salt of P3, where the carbonyl signal from TFA is well separated from the amide I carbonyl high frequency stretch at 1684 cm^–1 (Figure S1). On the day of the peptide sample preparation, D2O was placed in an Eppendorf tube, was then used as background when collecting data points (0 h, 48 h, 1 week, etc.), and was assumed to absorb the same amount of H2O over time as the peptide sample prepared on the same day. The concentration of the peptide solutions was verified with the UV–vis absorbance peak at 280 nm using a molar absorptivity of 2560 M^–1 cm^–1 for all sequences (P0–P7). The pH/pD of the samples was then corrected to 8.0 using small volumes of NaOH and HCl (or NaOD and DCl). After attaining the desired pH/pD, samples were incubated at ambient temperature (ca. 22 °C) and followed over 7 days (or as specified) to allow for hydrogelation.
FT IR was performed with a Bruker Vertex 70 spectrometer with a photovoltaic mercury cadmium telluride (MTC) detector. Before the spectral collection, the MCT detector was cooled with liquid nitrogen. A background spectrum (see hydrogel sample preparation above) was collected (6 μL of H2O or D2O), and the collection chamber was purged for 15 min before 6 μL of sample was loaded in between two CaF2 windows and separated by a 50-μm Teflon spacer in a 25-mm diameter demountable liquid cell (Harrick Scientific). After purging again, the IR spectrum was collected with 512 scans, with a resolution of 2 cm^–1, from 900 cm^–1 to 4000 cm^–1 at time t = 0 h, 24 h, 48 h, and 1 week (and sometimes longer) after sample constitution, processed using OPUS spectroscopy software, and plotted with Origin or KaleidaGraph.

Solubility in water = format: physicochemical; details: P7 and P8 not tested above 1.0 mM at pH 8
[4] = Hydrogelation and gel appearance by visual inspection; format: physicochemical; details: for Colloidal stability / phase separation of the hydrogel: visual inspection after hydrogel preparation, pH/pD 8.0, 2.0 mM, ambient temperature
Method: All FTIR measurements were collected on samples where a trifluoroacetate (TFA^–) to chloride ion exchange was performed to eliminate signals from the TFA^– carbonyl moiety in the amide I spectral region (Figure S1). FTIR spectra were collected for P0–P5 in D2O at six pD values (3.0, 5.0, 7.0, 8.0, 9.0, and 10.0) (Figures S2–S7). FTIR analysis for P6–P8 was performed at a pD of 8.0 (Figures S8–S10). The bulk of FTIR studies were performed at pD 8.0, as the optimum pH range for hydrogelation is 7–9 for both SgI38–48[28] and P0.
as §1

[5] = cited from earlier work
From the text: The present study targets a relatively complex 13-residue peptide for which we attempt to uncover the underlying chemical principles behind hydrogelation and correlations between sequence, structure, and bulk mechanical properties. The peptide is derived from the human protein semenogelin I (SgI), which is the main proteinaceous constituent in seminal plasma. SgI is also present in nonreproductive tissues including skeletal muscles, the trachea, and the gastrointestinal tract.[35] We previously reported that a short fragment of SgI forms a pH-responsive gel, similar in properties to the full-l ... || All FTIR measurements were collected on samples where a trifluoroacetate (TFA^–) to chloride ion exchange was performed to eliminate signals from the TFA^– carbonyl moiety in the amide I spectral region (Figure S1). FTIR spectra were collected for P0–P5 in D2O at six pD values (3.0, 5.0, 7.0, 8.0, 9.0, and 10.0) (Figures S2–S7). FTIR analysis for P6–P8 was performed at a pD of 8.0 (Figures S8–S10). The bulk of FTIR studies were performed at pD 8.0, as the optimum pH range for hydrogelati ...

Repeated dimension of broad SAXS peak at q = 0.172 Å^–1 ([1]; 2.0 mM): 3.7 nm
Fibril axis ratio ([1]; 2.0 mM): 3.2
Fibril cross-sectional area ([1]; 2.0 mM): 32.6 nm^2
Fibril minor radius (minor semiaxis) ([1]; 2.0 mM): 1.8 nm
Change of storage modulus G′ over one week [2]: significantly increases
Recovery of initial G′ within 2 min after strain-induced loss of gel character [2]: ca. 60%
Time to complete recovery of the initial G′ [2]: 45 min
Strain above which gel character is lost (G″ > G′) [2]: > 60 % strain
Strain up to which the gel is linearly viscoelastic [2]: ≤ 10 % strain
Slope of viscosity against shear rate (shear thinning) [2]: ca. −1.1
Angular frequency up to which G′ and G″ are frequency-independent [2]: up to 20 rad/s
Compound: CC[C@H](C)[C@H](NC(=O)[C@H](CO)NC(=O)[C@H](Cc1ccccc1)NC(C)=O)C(=O)N[C@@H](CCC(N)=O)C(=O)N[C@@H](Cc1ccc(O)cc1)C(=O)N[C@H](C(=O)N[C@@H](Cc1ccc(O)cc1)C(=O)N[C@@H](Cc1c[nH]cn1)C(=O)N[C@H](C(=O)N[C@@H](CC(=O)O)C(N)=O)C(C)C)[C@@H](C)O [P3] (Ac-FSIQYTYHVD-NH2)

Solubility in water (in words) (Solubility in water): low solubility
Compound: CC(=O)N[C@H](C(=O)N[C@@H](Cc1ccc(O)cc1)C(=O)N[C@@H](Cc1c[nH]cn1)C(=O)N[C@H](C(=O)N[C@@H](CC(=O)O)C(N)=O)C(C)C)[C@@H](C)O [P8] (Ac-TYHVD-NH2)
β-Sheet secondary structure (self-assembly) by FTIR amide I ([3]; pD 8.0, 2.0 mM (P7, P8 and F40FCN 1.0 mM)): no sign of a β-sheet secondary structure; also recorded: unstructured

Persistence of the β-sheet structure over time by FTIR [3]: is lost over time
Fibril axis ratio ([1]; 2.0 mM): 2.5
Fibril cross-sectional area ([1]; 2.0 mM): 17.7 nm^2
Fibril minor radius (minor semiaxis) ([1]; 2.0 mM): 1.5 nm
Gel robustness as noticed in handling ([4]; pD 8.0 hydrogels): less stable gel than P0, P2 and P3
Compound: CC[C@H](C)[C@H](NC(=O)[C@H](CO)NC(=O)[C@H](Cc1ccccc1)NC(=O)[C@H](CO)NC(=O)CNC(C)=O)C(=O)N[C@@H](CCC(N)=O)C(=O)N[C@@H](Cc1ccc(O)cc1)C(=O)N[C@H](C(=O)N[C@@H](Cc1ccc(O)cc1)C(=O)N[C@@H](Cc1c[nH]cn1)C(=O)N[C@H](C(=O)N[C@@H](CC(=O)O)C(N)=O)C(C)C)[C@@H](C)O [P1] (Ac-GSFSIQYTYHVD-NH2)

Repeated dimension of broad SAXS peak at q = 0.172 Å^–1 ([1]; 2.0 mM): 3.7 nm
Fibril axis ratio ([1]; 2.0 mM): 3.5
Fibril cross-sectional area ([1]; 2.0 mM): 35.6 nm^2
Fibril minor radius (minor semiaxis) ([1]; 2.0 mM): 1.8 nm
Change of storage modulus G′ over one week [2]: modestly increases
Recovery of initial G′ within 2 min after strain-induced loss of gel character [2]: ca. 75%
Time to complete recovery of the initial G′ [2]: 30 min
Strain above which gel character is lost (G″ > G′) [2]: above 10 % strain
Strain up to which the gel is linearly viscoelastic [2]: up to 2 % strain
Slope of viscosity against shear rate (shear thinning) [2]: ca. −1.1
Angular frequency up to which G′ and G″ are frequency-independent [2]: up to 20 rad/s
Compound: CC[C@H](C)[C@H](NC(=O)[C@H](CO)NC(=O)[C@H](Cc1ccccc1)NC(=O)[C@H](CO)NC(C)=O)C(=O)N[C@@H](CCC(N)=O)C(=O)N[C@@H](Cc1ccc(O)cc1)C(=O)N[C@H](C(=O)N[C@@H](Cc1ccc(O)cc1)C(=O)N[C@@H](Cc1c[nH]cn1)C(=O)N[C@H](C(=O)N[C@@H](CC(=O)O)C(N)=O)C(C)C)[C@@H](C)O [P2] (Ac-SFSIQYTYHVD-NH2)
G′ of P2 relative to P3 ([2]; after 1 week of incubation): close to an order of magnitude higher than P3

Fibril axis ratio ([1]; 2.0 mM): 1.9
Fibril cross-sectional area ([1]; 2.0 mM): 57.4 nm^2
Fibril minor radius (minor semiaxis) ([1]; 2.0 mM): 3.1 nm
Repeat distance of sharp SAXS peak at q = 0.305 Å^–1 [1]: 2.1 nm
Hydrogel formation ([4]; visual inspection, peptide in water/D2O, pH/pD 8.0, 2.0 mM (P7 1.0 mM), ambient temperature ca. 22 °C, up to 7 days): forms a hydrogel
Compound: CC(=O)N[C@@H](CCC(N)=O)C(=O)N[C@@H](Cc1ccc(O)cc1)C(=O)N[C@H](C(=O)N[C@@H](Cc1ccc(O)cc1)C(=O)N[C@@H](Cc1c[nH]cn1)C(=O)N[C@H](C(=O)N[C@@H](CC(=O)O)C(N)=O)C(C)C)[C@@H](C)O [P6] (Ac-QYTYHVD-NH2)
Colloidal stability / phase separation of the hydrogel [4]: colloidally unstable and undergoes phase separation

Persistence of the β-sheet structure over time by FTIR [3]: sheet structure is lost within 1 week
Fibril axis ratio ([1]; 2.0 mM): 2.1
Fibril cross-sectional area ([1]; 2.0 mM): 59.4 nm^2
Fibril minor radius (minor semiaxis) ([1]; 2.0 mM): 3.0 nm and 3 nm
Periodic repeat distance from WAXS peak ([1]; WAXS, q = 1.3 Å^–1 (P0–P3) or 1.05 Å^–1 (P4–P6), 2.0 mM, pH 8.0, 21 °C): 6.0 Å
Repeat distance of sharp SAXS peak at q = 0.305 Å^–1 [1]: 2.1 nm
Compound: CC[C@H](C)[C@H](NC(=O)[C@H](CO)NC(C)=O)C(=O)N[C@@H](CCC(N)=O)C(=O)N[C@@H](Cc1ccc(O)cc1)C(=O)N[C@H](C(=O)N[C@@H](Cc1ccc(O)cc1)C(=O)N[C@@H](Cc1c[nH]cn1)C(=O)N[C@H](C(=O)N[C@@H](CC(=O)O)C(N)=O)C(C)C)[C@@H](C)O [P4] (Ac-SIQYTYHVD-NH2)
Colloidal stability / phase separation of the hydrogel [4]: colloidally unstable and undergoes phase separation

Solubility in water (in words) (Solubility in water): limited solubility in water
Compound: CC[C@H](C)[C@H](NC(=O)[C@H](CO)NC(=O)[C@H](Cc1ccccc1)NC(=O)[C@H](CO)NC(=O)CNC(C)=O)C(=O)N[C@@H](CCC(N)=O)C(=O)N[C@@H](Cc1ccc(O)cc1)C(=O)N[C@H](C(=O)N[C@@H](Cc1ccc(O)cc1)C(=O)N[C@@H](Cc1c[nH]cn1)C(=O)N[C@H](C(N)=O)C(C)C)[C@@H](C)O [SgI38–48, AcNH–GSFSIQYTYHV–CONH2] (Ac-GSFSIQYTYHV-NH2)
Optimum pH range for hydrogelation [5]: 7–9
Concentration at which the peptide self-assembles into a hydrogel network ([5]; physiological conditions): 0.5 % w/v

From paper PMC11562788, “Insights into the Hierarchical Assembly of a Chemically Diverse Peptide Hydrogel Derived from Human Semenogelin I” (ACS Nano, 2024)
